Here are results for three compounds from ChEMBL document CHEMBL1134225, “Potent synthetic inhibitors of tyrosyl tRNA synthetase derived from C-pyranosyl analogues of SB-219383” (Bioorg Med Chem Lett, 2001).

The nature of test [1]: Inhibitory activity against Staphylococcus aureus tyrosyl tRNA synthetase (YRS) using aminoacylation assay.
A short description of test [2]: Inhibitory activity (3 uM) against Staphylococcus aureus tyrosyl tRNA synthetase (YRS) using aminoacylation assay.
Test [3] in a line: Inhibitory activity against Staphylococcus aureus tyrosyl tRNA synthetase (YRS) using aminoacylation assay; NI = No inhibition.

What is called IC50 is the point on the concentration scale where inhibition reaches its midpoint. For the compound `N[C@@H](Cc1ccc(O)cc1)C(=O)N[C@H](C(=O)O)[C@@H]1OC[C@H](O)[C@H](O)[C@H]1O`, the IC50 in test [1] is 100 nM. That is a sub-micromolar value.
Usually inhibition stands for the share of the control response that was lost under treatment. Low values mean a response near the control, high ones a response far below the control. In the case of `N[C@@H](Cc1ccc(O)cc1)C(=O)N[C@H](C(=O)O)[C@@H]1OC[C@H](O)[C@@H](O)[C@H]1O`, in test [2], the inhibition is 71%.
In the case of `N[C@@H](Cc1ccc(O)cc1)C(=O)NC(C(=O)O)[C@@H]1O[C@H](CO)[C@@H](O)[C@H](O)[C@H]1O` (stereo partly drawn), the IC50 result in test [3] is on record as “Not Active”.
